This passage reports IC50 results from ChEMBL document CHEMBL3232715, “Recent progress in the identification of BRAF inhibitors as anti-cancer agents” (Eur J Med Chem, 2014).

Usually IC50 stands for the concentration needed to halve the response being measured. Higher therefore signals weaker potency in that assay.

The target of assay [1] is T1, Serine/threonine-protein kinase B-raf (Homo sapiens, UniProt P15056). Put plainly: Inhibition of BRAF (unknown origin).
Assay [2] has as its target T2, Serine/threonine-protein kinase B-raf (Homo sapiens, UniProt P15056, V600E). In words: Inhibition of BRAF V600E mutant-mediated MEK phosphorylation in human HT-29 cells by Western blotting analysis. It counts as cell-based. (In western blotting, separated proteins are transferred to a membrane and probed.)
The target in assay [3] is T1, Serine/threonine-protein kinase B-raf. In words: Inhibition of N-terminal 6X-His tagged human wild-type BRAF by ELISA.
Assay [4] concerns the target T2, Serine/threonine-protein kinase B-raf. In words: Inhibition of N-terminal 6X-His tagged human BRAF V600E mutant (433 to 726) by ELISA. (ELISA stands for enzyme-linked immunosorbent assay.)
The target is the same in assay [5]. Put plainly: Inhibition of BRAF V600E mutant (unknown origin).
Assay [6] can be described thus: Antiproliferative activity against human WM266.4 cells. Particulars: WM 266-4. It counts as functional, cell-based.
Another assay relates to A-375. In words: Antiproliferative activity against human A375 cells. It counts as functional, cell-based.
In assay [7] the target is T1, Serine/threonine-protein kinase B-raf. In words: Inhibition of BRAF (unknown origin)-mediated ERK phosphorylation.

T2 sequence (P15056 2-766 V600E limits assumed): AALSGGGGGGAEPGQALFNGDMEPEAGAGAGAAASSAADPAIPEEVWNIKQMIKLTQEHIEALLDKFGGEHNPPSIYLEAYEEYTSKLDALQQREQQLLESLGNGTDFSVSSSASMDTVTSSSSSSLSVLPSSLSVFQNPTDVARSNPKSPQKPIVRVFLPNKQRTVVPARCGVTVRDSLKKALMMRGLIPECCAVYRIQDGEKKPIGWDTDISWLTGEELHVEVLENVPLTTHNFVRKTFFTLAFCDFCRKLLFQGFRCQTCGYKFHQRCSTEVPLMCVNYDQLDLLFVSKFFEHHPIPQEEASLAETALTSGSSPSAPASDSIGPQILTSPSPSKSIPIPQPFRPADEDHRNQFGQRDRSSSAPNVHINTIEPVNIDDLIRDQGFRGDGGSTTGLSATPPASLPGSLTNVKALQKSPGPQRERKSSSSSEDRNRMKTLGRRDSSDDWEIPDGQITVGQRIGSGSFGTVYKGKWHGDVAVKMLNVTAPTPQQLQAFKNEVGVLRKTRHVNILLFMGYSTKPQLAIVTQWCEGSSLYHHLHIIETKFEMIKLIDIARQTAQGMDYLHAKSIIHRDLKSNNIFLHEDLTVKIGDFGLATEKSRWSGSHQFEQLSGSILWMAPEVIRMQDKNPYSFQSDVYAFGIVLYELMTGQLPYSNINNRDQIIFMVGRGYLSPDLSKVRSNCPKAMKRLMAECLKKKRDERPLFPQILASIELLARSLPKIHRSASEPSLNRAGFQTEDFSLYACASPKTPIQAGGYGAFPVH
T1 sequence (P15056 whole entry): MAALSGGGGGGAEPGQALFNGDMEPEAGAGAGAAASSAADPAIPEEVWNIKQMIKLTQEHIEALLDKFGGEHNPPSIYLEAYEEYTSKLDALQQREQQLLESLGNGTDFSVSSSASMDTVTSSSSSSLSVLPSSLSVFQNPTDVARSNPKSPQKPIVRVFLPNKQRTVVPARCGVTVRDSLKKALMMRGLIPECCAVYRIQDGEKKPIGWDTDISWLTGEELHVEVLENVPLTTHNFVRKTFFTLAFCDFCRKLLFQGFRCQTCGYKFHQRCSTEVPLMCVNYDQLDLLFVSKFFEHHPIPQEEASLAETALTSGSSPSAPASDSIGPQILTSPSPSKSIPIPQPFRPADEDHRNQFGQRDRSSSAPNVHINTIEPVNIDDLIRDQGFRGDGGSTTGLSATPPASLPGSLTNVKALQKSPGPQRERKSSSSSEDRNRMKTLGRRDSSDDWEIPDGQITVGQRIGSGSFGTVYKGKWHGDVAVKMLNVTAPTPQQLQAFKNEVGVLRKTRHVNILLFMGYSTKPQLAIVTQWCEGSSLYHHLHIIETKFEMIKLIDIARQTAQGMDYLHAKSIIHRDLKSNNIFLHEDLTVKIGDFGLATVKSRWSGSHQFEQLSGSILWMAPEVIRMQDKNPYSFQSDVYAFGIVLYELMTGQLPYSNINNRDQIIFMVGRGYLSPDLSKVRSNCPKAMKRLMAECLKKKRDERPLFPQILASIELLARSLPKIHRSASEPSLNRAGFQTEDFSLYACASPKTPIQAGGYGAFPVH

For `O=C(Nc1cccc(Oc2ccc3nc(NC(=O)C4CCOCC4)cn3n2)c1)c1cccc(C(F)(F)F)c1`, the results for the IC50 in assay [1] and in assay [2] were 43 nM and 3.8 µM, respectively.
`O=C1NC(=S)NC(=O)C1=Cc1ccc(-c2ccc3c(c2)OCO3)o1`: the IC50 in assay [3] was 1150 nM; in assay [4], 300 nM.
As to `O=C(Nc1ccccc1)N(Cc1ccc(Br)cc1O)c1cc(-c2ccccc2)[nH]n1`, the values for the 50% inhibitory concentration (IC50) (in assay [5]; in assay [6]; in the assay on A-375) were 190 nM, 1500 nM and 1320 nM, respectively.
`O/N=C1\CCc2cc(-c3cn(C4CCNCC4)nc3-c3ccncc3)ccc21`: the IC50 in assay [7] turned out to be 9 nM. In other words, the single-digit nanomolar range.
